Reference: patent publication US8729082B2, “Substituted imidazoquinoxalines” (Bayer Intellectual Property GmbH, priority 2009, dated 2014)

Molecular target: T1, human kinase Mps-1 (Homo sapiens, UniProt P33981)
T1 construct: N-terminally GST-tagged human full length recombinant Mps-1 kinase; purchased Invitrogen, Karslruhe, Germany PV4071
T1 sequence (P33981 1-857): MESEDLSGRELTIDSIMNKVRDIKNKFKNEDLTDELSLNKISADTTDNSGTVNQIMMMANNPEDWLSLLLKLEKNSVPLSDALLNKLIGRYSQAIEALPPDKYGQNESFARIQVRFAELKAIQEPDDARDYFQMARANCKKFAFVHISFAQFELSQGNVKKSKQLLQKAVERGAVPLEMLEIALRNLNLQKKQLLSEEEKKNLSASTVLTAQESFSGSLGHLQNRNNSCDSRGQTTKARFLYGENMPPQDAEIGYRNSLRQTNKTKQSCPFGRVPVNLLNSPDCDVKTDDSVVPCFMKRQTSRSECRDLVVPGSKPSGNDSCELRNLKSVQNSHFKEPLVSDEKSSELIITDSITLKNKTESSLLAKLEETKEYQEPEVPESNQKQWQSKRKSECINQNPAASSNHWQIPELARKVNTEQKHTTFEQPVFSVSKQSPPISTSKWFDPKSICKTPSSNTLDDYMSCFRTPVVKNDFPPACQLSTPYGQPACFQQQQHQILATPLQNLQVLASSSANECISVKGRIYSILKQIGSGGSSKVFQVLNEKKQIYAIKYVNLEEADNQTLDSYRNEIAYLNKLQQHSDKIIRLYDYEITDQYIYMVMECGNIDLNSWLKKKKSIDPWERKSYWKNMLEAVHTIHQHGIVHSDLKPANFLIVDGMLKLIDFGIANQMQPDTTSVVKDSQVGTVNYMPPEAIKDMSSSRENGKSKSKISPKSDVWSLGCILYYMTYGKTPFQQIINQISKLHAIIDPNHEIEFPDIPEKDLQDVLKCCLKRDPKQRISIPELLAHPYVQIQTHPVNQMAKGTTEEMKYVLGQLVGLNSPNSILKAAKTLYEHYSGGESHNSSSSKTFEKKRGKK
Assay: Mps-1 kinase assay (HTRF)
Format: biochemical
Conditions: lowATP; mean; read-out: Mps1 lowATP mean IC50
Outline: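 HTRF readout: EDTA-stopped reactions incubated 1 h with europium anti-phospho(Ser/Thr) antibody and streptavidin-XLent, emission ratio 665/620 nm after 350 nm excitation. Kinase step: compound pre-bound 15 min to ~1 nM GST-Mps-1, then 60 min at 22 °C with ATP and biotin-peptide substrate; inhibition scaled between no-inhibitor (0%) and no-enzyme (100%) controls.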

Compound	IC50 [nM]
CNC(=O)Nc1ccc(-c2cnc3c(NCc4ccccc4F)nc4cc(C)c(C)cc4n23)cc1 [Example 2-163, 1-(4-{4-[(2-fluorobenzyl)amino]-7,8-dimethylimidazo[1,2-a]quinoxalin-1-yl}phenyl)-3-methylurea]	1470
CC(C)CCNc1nc2cc(C#N)ccc2n2c(-c3ccc(C(=O)NC4CC4)c(Cl)c3)cnc12 [Example 2-237, 2-chloro-4-{7-cyano-4-[(3-methylbutyl)amino]imidazo[1,2-a]quinoxalin-1-yl}-N-cyclopropylbenzamide]	600
CNC(=O)Nc1ccc(-c2cnc3c(NCCCn4ccnc4)nc4ccc(F)cc4n23)cc1 [Example 2-67, 1-[4-(8-fluoro-4-{[3-(1H-imidazol-1-yl)propyl]amino}imidazo[1,2-a]quinoxalin-1-yl)phenyl]-3-methylurea]	3130
CC(C)CNc1nc2ccccc2n2c(-c3cccs3)cnc12 [Example 1-21, N-(2-methylpropyl)-1-(thiophen-2-yl)imidazo[1,2-a]quinoxalin-4-amine]	3310
CNC(=O)Nc1ccc(-c2cnc3c(NCc4cccs4)nc4cc(C)c(C)cc4n23)cc1 [Example 2-167, 1-(4-{7,8-dimethyl-4-[(thiophen-2-ylmethyl)amino]imidazo[1,2-a]quinoxalin-1-yl}phenyl)-3-methylurea]	469
CC(C)CNc1nc2ccccc2n2c(-c3ccc(CO)cc3)cnc12 [Example 1-27, (4-{4-[(2-methylpropyl)amino]imidazo[1,2-a]quinoxalin-1-yl}phenyl)methanol]	1680
O=C(NC1CC1)c1ccc(-c2cnc3c(NCCCN4CCCC4=O)nc4ccc(F)cc4n23)cc1 [Example 2-44, N-cyclopropyl-4-(8-fluoro-4-{[3-(2-oxopyrrolidin-1-yl)propyl]amino}imidazo[1,2-a]quinoxalin-1-yl)benzamide]	325
CNC(=O)Nc1ccc(-c2cnc3c(NCCCO)nc4cc(F)c(F)cc4n23)cc1 [Example 2-116, 1-(4-{7,8-difluoro-4-[(3-hydroxypropyl)amino]imidazo[1,2-a]quinoxalin-1-yl}phenyl)-3-methylurea]	5340
CC(=O)NCCNc1nc2cc(C#N)ccc2n2c(-c3ccc(C(=O)NC4CC4)c(Cl)c3)cnc12 [Example 2-244, 4-(4-{[2-(acetylamino)ethyl]amino}-7-cyanoimidazo[1,2-a]quinoxalin-1-yl)-2-chloro-N-cyclopropylbenzamide]	8820
CC(C)CNc1nc2ccccc2n2c(-c3ccc4[nH]ncc4c3)cnc12 [Example 1-48, 1-(1H-indazol-5-yl)-N-(2-methylpropyl)imidazo[1,2-a]quinoxalin-4-amine]	4530
CCn1nccc1C(=O)Nc1cccc(NC(=O)c2ccc(-c3cnc4c(NCC(C)C)nc5ccccc5n34)cc2)c1 [Example 3-24, 1-ethyl-N-{3-[(4-{4-[(2-methylpropyl)amino]imidazo[1,2-a]quinoxalin-1-yl}benzoyl)amino]phenyl}-1H-pyrazole-5-carboxamide]	3610
Cc1ccc(-c2cnc3c(NCC(C)C)nc4ccccc4n23)cc1 [Example 1-7, 1-(4-methylphenyl)-N-(2-methylpropyl)imidazo[1,2-a]quinoxalin-4-amine]	5360
CC(C)CNc1nc2ccccc2n2c(-c3ccc4c(c3)OCO4)cnc12 [Example 1-28, 1-(1,3-benzodioxol-5-yl)-N-(2-methylpropyl)imidazo[1,2-a]quinoxalin-4-amine]	9900
CNC(=O)Nc1ccc(-c2cnc3c(NCc4cccnc4)nc4cc(C)c(C)cc4n23)cc1 [Example 2-171, 1-(4-{7,8-dimethyl-4-[(pyridin-3-ylmethyl)amino]imidazo[1,2-a]quinoxalin-1-yl}phenyl)-3-methylurea]	283

The next compounds have a lower IC50 than those just listed; values first:

IC50 [nM]	Compound
59.6	Cn1ccc(CNc2nc3cc(C#N)ccc3n3c(-c4ccc(C(=O)NC5CC5)cc4)cnc23)n1 [Example 2-219, 4-(7-cyano-4-{[(1-methyl-1H-pyrazol-3-yl)methyl]amino}imidazo[1,2-a]quinoxalin-1-yl)-N-cyclopropylbenzamide]
55.5	CC(C)CCNc1nc2cc(F)c(F)cc2n2c(-c3ccc(C(=O)NC4CC4)cc3)cnc12 [Example 2-91, N-cyclopropyl-4-{7,8-difluoro-4-[(3-methylbutyl)amino]imidazo[1,2-a]quinoxalin-1-yl}benzamide]
2.64	Cc1cc2nc(NCC3CC3)c3ncc(-c4ccc(C(=O)NC5CC5)cc4)n3c2cc1C [Example 2-150, N-cyclopropyl-4-{4-[(cyclopropylmethyl)amino]-7,8-dimethylimidazo[1,2-a]quinoxalin-1-yl}benzamide]
34.1	O=C(NC1CC1)c1ccc(-c2cnc3c(NCC4CC4)nc4cc(F)c(F)cc4n23)cc1 [Example 2-104, N-cyclopropyl-4-{4-[(cyclopropylmethyl)amino]-7,8-difluoroimidazo[1,2-a]quinoxalin-1-yl}benzamide]
113	COCCNc1nc2cc(C)c(C)cc2n2c(-c3ccc(C(=O)NC4CC4)c(Cl)c3)cnc12 [Example 2-183, 2-chloro-N-cyclopropyl-4-{4-[(2-methoxyethyl)amino]-7,8-dimethylimidazo[1,2-a]quinoxalin-1-yl}benzamide]
11.1	CCCNc1nc2cc(C#N)ccc2n2c(-c3ccc(C(=O)NC4CC4)cc3)cnc12 [Example 2-203, 4-[7-cyano-4-(propylamino)imidazo[1,2-a]quinoxalin-1-yl]-N-cyclopropylbenzamide]
28.6	CCCNc1nc2cc(F)c(F)cc2n2c(-c3ccc(C(=O)NC4CC4)cc3)cnc12 [Example 2-88, N-cyclopropyl-4-[7,8-difluoro-4-(propylamino)imidazo[1,2-a]quinoxalin-1-yl]benzamide]
5.22	Cc1cc2nc(NCc3ccco3)c3ncc(-c4ccc(C(=O)NC5CC5)cc4)n3c2cc1C [Example 2-153, N-cyclopropyl-4-{4-[(furan-2-ylmethyl)amino]-7,8-dimethylimidazo[1,2-a]quinoxalin-1-yl}benzamide]
75.8	O=C(NC1CC1)c1ccc(-c2cnc3c(NCc4ccc(F)cc4)nc4cc(F)c(F)cc4n23)cc1 [Example 2-95, N-cyclopropyl-4-{7,8-difluoro-4-[(4-fluorobenzyl)amino]imidazo[1,2-a]quinoxalin-1-yl}benzamide]
48.1	NS(=O)(=O)c1ccc(CCNc2nc3ccccc3n3c(-c4ccc(C(=O)NC5CC5)cc4)cnc23)cc1 [Example 2-21, N-cyclopropyl-4-(4-{[2-(4-sulfamoylphenyl)ethyl]amino}imidazo[1,2-a]quinoxalin-1-yl)benzamide]
67.1	Cn1cc(CNc2nc3cc(C#N)ccc3n3c(-c4ccc(C(=O)NC5CC5)cc4)cnc23)cn1 [Example 2-221, 4-(7-cyano-4-{[(1-methyl-1H-pyrazol-4-yl)methyl]amino}imidazo[1,2-a]quinoxalin-1-yl)-N-cyclopropylbenzamide]
127	N#Cc1ccc2c(c1)nc(NCC(O)CO)c1ncc(-c3ccc(C(=O)NC4CC4)cc3)n12 (stereo not drawn) [Example 2-222, 4-{7-cyano-4-[(2,3-dihydroxypropyl)amino]imidazo[1,2-a]quinoxalin-1-yl}-N-cyclopropylbenzamide]
28.5	Cn1nccc1CNc1nc2cc(F)c(F)cc2n2c(-c3ccc(C(=O)NC4CC4)cc3)cnc12 [Example 2-110, N-cyclopropyl-4-(7,8-difluoro-4-{[(1-methyl-1H-pyrazol-5-yl)methyl]amino}imidazo[1,2-a]quinoxalin-1-yl)benzamide]
